In US20230056205A1, “SUBSTITUTED 4,6-DIHYDROSPIRO[[1,2,3]TRIAZOLO[4,5-B]PYRIDINE-7,3'-INDOLINE]-2',5(3H)-DIONE ANALOGUES” (The Board of Regents of The University of Texas System, priority 2019, published 2023):

Tests used:
DENV-1 replicon = assay: Luciferase reporter replicon-based screening, DENV-1; format: cell-based, DENV-1 (strain WestPac); conditions: Dengue virus, DENV1, Huh-7, 48 h, read-out: EC50 DENV-1
How it was run: (§1)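 Huh7 cells carrying Renilla luciferase/neo replicons of DENV-1 (WestPac), DENV-2 (NGC), DENV-3 (D3MY05-34640) or DENV-4 (D4MY01-22713), treated with 2-fold compound dilutions for 48 h at 37 °C in duplicate. Live-cell luciferase read; EC50 by four-parameter logistic fit.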

DENV-2 replicon = assay: Luciferase reporter replicon-based screening, DENV-2; format: cell-based, DENV-2 (New Guinea C strain, NGC); conditions: Dengue virus, DENV2, Huh-7, 48 h, read-out: EC50 DENV-2, Huh7 cells stably expressing DENV-2 replicon, 48 h
How it was run: as §1

DENV-3 replicon = assay: Luciferase reporter replicon-based screening, DENV-3; format: cell-based, DENV-3 (strain D3MY05-34640); conditions: Dengue virus, DENV3, Huh-7, 48 h, read-out: EC50 DENV-3, Huh7 cells stably expressing DENV-3 replicon, 48 h
How it was run: as §1

DENV-4 replicon = assay: Luciferase reporter replicon-based screening, DENV-4; format: cell-based, DENV-4 (strain D4MY01-22713); conditions: Dengue virus, DENV4, Huh-7, 48 h, read-out: EC50 DENV-4
How it was run: as §1

[1] = Cytotoxicity assay (CellTiter-Glo); format: cell-based; conditions: human, Huh7 cells stably expressing DENV-2 replicon
How it was run: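 Huh7 or Huh7 replicon cells, seeded overnight at 37 °C, exposed to 2-fold serial dilutions of compound for 48 h in duplicate. Viability by CellTiter-Glo, normalised to 0.45% DMSO wells (100%); CC50 by four-parameter logistic regression.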

DENV-2 strain NGC = assay: Viral titer reduction assay, DENV-2 strain NGC; format: cell-based; conditions: Dengue virus, DENV2, Huh-7; viral titer reduction assay on Huh7 cells
Method: Viral Titer Reduction Assay. Huh7 cells were seeded in a 96-well plate. The next day, cells were infected with DENV-2 strains NGC or D2Y98P at a MOI of 0.3 in the presence of 2-fold serial dilutions of compounds. Experiments were performed in triplicates. After incubation at 37° C. for 48 h, cell culture fluids were harvested. The infectious viruses in the culture fluids were determined by plaque assay using a protocol as described previously.^48 The EC50 values were calculated using four parameter logistic regression in GraphPad software Prism 8.0.

[2] = tested on: P12 resistant DENV-2 viruses (NS4B V63M or V63L); format: cell-based, DENV-2 strain NGC
in vivo = format: in vivo, male SD rats
Method: In Vivo PK Studies. The PK profiles of compound 15 were determined in male SD rats following intravenous (i.v.) and oral (p.o.) administration of 10 and 20 mg/kg, respectively. The formulations used for i.v. and p.o. were solution in DMSO: 20% HP-β-CD in saline = 1:9. IV bolus injection, animal number N = 3; dose level: 10 mg/kg; sample collection time points: 5 min, 15 min, 30 min, 1 h, 2 h, 4 h, 8 h, 24 h; PO: animal number N = 3; fasting 12 h, dose level: 20 mg/kg; sample collection time points: 15 min, 30 min, 1 h, 2 h, 4 h, 8 h, 24 h. Plasma concentrations of compound 15 were measured by API-4000/5500 LC-MS/MS with 8 point standard curve and 6 QCs. Pharmacokinetic parameters were calculated by a non-compartmental approach using WinNonLin software.

`CC(C)CCN1C(=O)[C@]2(CC(=O)Nc3c2nnn3[C@@H](C)c2ccc(Cl)cc2)c2cc(Cl)ccc21` [Compound 15, (R)-5'-Chloro-3-((S)-1-(4-chlorophenyl)ethyl)-1'-isopentyl-4,6-dihydrospiro[[1,2,3]triazolo[4,5-b]pyridine-7,3'-indoline]-2ʹ,5(3H)-dione] gave an EC50 (DENV-1 replicon) of 780 nM, an EC50 (DENV-2 replicon) of 160 nM and an EC50 (DENV-3 replicon) of 35 nM. The EC50 (DENV-4 replicon) was over 5000 nM, the CC50 at 48 h [1] was over 10000 nM and the EC50 (DENV-2 strain NGC) was about 100 nM. The “increase of viral resistance by mutation NS4B V63L” value ([2]; P12-VI virus, Huh7 cells) was 16 folds, the EC50 ([2]; viral reduction assay on Huh7 cells, read-out: EC50 against resistant viruses P12-VI) was 2000 nM and the “AUC0- ∞” value (in vivo; iv 10 mg/kg, rat plasma) was 10,334 ng·h/mL. The CL (in vivo; iv 10 mg/kg, rat plasma) was 13.7 mL/min/kg, the Cmax (in vivo; iv 10 mg/kg, rat plasma) was 10,334 ng/mL and the MRT (in vivo; iv 10 mg/kg, rat plasma) was 2.28 h. It also gave a Vss (in vivo; iv 10 mg/kg, rat plasma) of 2.67 L/kg, a t½ (in vivo; iv 10 mg/kg, rat plasma) of 2.29 h and a Tmax (in vivo; male, SD, in vivo, po 20 mg/kg, rat plasma) of 1 h. For the same compound, the bioavailability (in vivo; male, SD, rat, in vivo, po 20 mg/kg vs iv 10 mg/kg, rats, read-out: F (absolute oral bioavailability)) was 30%, the “AUC0- ∞” value (in vivo; po 20 mg/kg, rat plasma) was 6,240 ng·h/mL and the CL (in vivo; po 20 mg/kg, rat plasma) was 59.5 mL/min/kg. For the same compound, the Cmax (in vivo; po 20 mg/kg, rat plasma) was 1,517 ng/mL, the MRT (in vivo; po 20 mg/kg, rat plasma) was 3.46 h and the Vss (in vivo; po 20 mg/kg, rat plasma) was 11.54 L/kg. For the same compound, the t½ (in vivo; po 20 mg/kg, rat plasma) was 2.24 h.
